Experimental data from the kinase profiling compilation of Christmann-Franck et al. (2016).
pIC50: −log10 of the molar value. Blank lines part the entries; values can stand above or below the compound they belong to.

Assays:
RPS6KA1 KD2 (human) = RPS6KA1 KD2 (human) (UniProt Q15418); assay: KINOMEscan competition binding; settings: compound 10.0 µM
ULK2 (human) = ULK2 (human) (UniProt Q8IYT8); assay: KINOMEscan competition binding; settings: compound 10.0 µM
FER (human) = FER (human) (UniProt P16591); assay: KINOMEscan competition binding; settings: compound 10.0 µM
RPS6KA6 KD2 (human) = RPS6KA6 KD2 (human) (UniProt Q9UK32); assay: KINOMEscan competition binding; settings: compound 10.0 µM
ROS1 (human) = ROS1 (human) (UniProt P08922); assay: KINOMEscan competition binding; settings: compound 10.0 µM
[1] = test system: ABL1 (human), P00519 [F317L]; assay: KINOMEscan competition binding; settings: compound 10.0 µM
MAPK7 (human) = MAPK7 (human) (UniProt Q13164); assay: KINOMEscan competition binding; settings: compound 10.0 µM
TNK1 (human) = TNK1 (human) (UniProt Q13470); assay: KINOMEscan competition binding; settings: compound 10.0 µM
CSF1R (human) = CSF1R (human) (UniProt P07333); assay: KINOMEscan competition binding; settings: compound 10.0 µM
PTK2 (human) = PTK2 (human) (UniProt Q05397); assay: KINOMEscan competition binding; settings: compound 10.0 µM
STK33 (human) = STK33 (human) (UniProt Q9BYT3); assay: KINOMEscan competition binding; settings: compound 10.0 µM
PLK1 (human) = PLK1 (human) (UniProt P53350); assay: KINOMEscan competition binding; settings: compound 10.0 µM
FGFR4 (human) = FGFR4 (human) (UniProt P22455); assay: KINOMEscan competition binding; settings: compound 10.0 µM
AURKA (human) = AURKA (human) (UniProt O14965); assay: KINOMEscan competition binding; settings: compound 10.0 µM
PTK2B (human) = PTK2B (human) (UniProt Q14289); assay: KINOMEscan competition binding; settings: compound 10.0 µM
PLK4 (human) = PLK4 (human) (UniProt O00444); assay: KINOMEscan competition binding; settings: compound 10.0 µM
CAMKK2 (human) = CAMKK2 (human) (UniProt Q96RR4); assay: KINOMEscan competition binding; settings: compound 10.0 µM
TNK2 (human) = TNK2 (human) (UniProt Q07912); assay: KINOMEscan competition binding; settings: compound 10.0 µM
PIK3CG (human) = PIK3CG (human) (UniProt P48736); assay: KINOMEscan competition binding; settings: compound 10.0 µM
DCLK2 (human) = DCLK2 (human) (UniProt Q8N568); assay: KINOMEscan competition binding; settings: compound 10.0 µM
GAK (human) = GAK (human) (UniProt O14976); assay: KINOMEscan competition binding; settings: compound 10.0 µM
TAOK1 (human) = TAOK1 (human) (UniProt Q7L7X3); assay: KINOMEscan competition binding; settings: compound 10.0 µM
RPS6KA2 KD2 (human) = RPS6KA2 KD2 (human) (UniProt Q15349); assay: KINOMEscan competition binding; settings: compound 10.0 µM
PTK6 (human) = PTK6 (human) (UniProt Q13882); assay: KINOMEscan competition binding; settings: compound 10.0 µM
DCLK1 (human) = DCLK1 (human) (UniProt O15075); assay: KINOMEscan competition binding; settings: compound 10.0 µM
AURKC (human) = AURKC (human) (UniProt Q9UQB9); assay: KINOMEscan competition binding; settings: compound 10.0 µM
ULK1 (human) = ULK1 (human) (UniProt O75385); assay: KINOMEscan competition binding; settings: compound 10.0 µM
TAOK3 (human) = TAOK3 (human) (UniProt Q9H2K8); assay: KINOMEscan competition binding; settings: compound 10.0 µM
MKNK2 (human) = MKNK2 (human) (UniProt Q9HBH9); assay: KINOMEscan competition binding; settings: compound 10.0 µM
CAMK2D (human) = CAMK2D (human) (UniProt Q13557); assay: KINOMEscan competition binding; settings: compound 10.0 µM
MYLK (human) = MYLK (human) (UniProt Q15746); assay: KINOMEscan competition binding; settings: compound 10.0 µM
ALK (human) = ALK (human) (UniProt Q9UM73); assay: KINOMEscan competition binding; settings: compound 10.0 µM
FRK (human) = FRK (human) (UniProt P42685); assay: KINOMEscan competition binding; settings: compound 10.0 µM
[2] = test system: ABL1 (human), P00519 [F317I]; assay: KINOMEscan competition binding; settings: compound 10.0 µM
TTK (human) = TTK (human) (UniProt P33981); assay: KINOMEscan competition binding; settings: compound 10.0 µM
NUAK1 (human) = NUAK1 (human) (UniProt O60285); assay: KINOMEscan competition binding; settings: compound 10.0 µM
PRKD1 (human) = PRKD1 (human) (UniProt Q15139); assay: KINOMEscan competition binding; settings: compound 10.0 µM
PIM1 (human) [3] = biological target: PIM1 (human) (UniProt P11309); assay: SelectScreen, TR FRET
PIM2 (human) [4] = biological target: PIM2 (human) (UniProt Q9P1W9); assay: SelectScreen, TR FRET
CSNK2A1 (human) = CSNK2A1 (human) (UniProt P68400); assay: KINOMEscan competition binding; settings: compound 10.0 µM
MAPK12 (human) = MAPK12 (human) (UniProt P53778); assay: KINOMEscan competition binding; settings: compound 10.0 µM
CSNK2A2 (human) = CSNK2A2 (human) (UniProt P19784); assay: KINOMEscan competition binding; settings: compound 10.0 µM
TGFBR2 (human) = TGFBR2 (human) (UniProt P37173); assay: KINOMEscan competition binding; settings: compound 10.0 µM
HIPK1 (human) = HIPK1 (human) (UniProt Q86Z02); assay: KINOMEscan competition binding; settings: compound 10.0 µM
GSK3A (human) = GSK3A (human) (UniProt P49840); assay: KINOMEscan competition binding; settings: compound 10.0 µM
[5] = biological target: TYK2 JH2 pseudokinase (human) (UniProt P29597); assay: KINOMEscan competition binding; settings: compound 10.0 µM
PIM1 (human) [6] = biological target: PIM1 (human) (UniProt P11309); assay: KINOMEscan competition binding; settings: compound 10.0 µM
CDK7 (human) = CDK7 (human) (UniProt P50613); assay: KINOMEscan competition binding; settings: compound 10.0 µM
CLK4 (human) = CLK4 (human) (UniProt Q9HAZ1); assay: KINOMEscan competition binding; settings: compound 10.0 µM
ZAP70 (human) = ZAP70 (human) (UniProt P43403); assay: KINOMEscan competition binding; settings: compound 10.0 µM
PIM2 (human) [7] = biological target: PIM2 (human) (UniProt Q9P1W9); assay: KINOMEscan competition binding; settings: compound 10.0 µM
DAPK2 (human) = DAPK2 (human) (UniProt Q9UIK4); assay: KINOMEscan competition binding; settings: compound 10.0 µM
STK17B (human) = STK17B (human) (UniProt O94768); assay: KINOMEscan competition binding; settings: compound 10.0 µM
[8] = test system: EIF2AK4 KD2 (human), Q9P2K8 [S808G]; assay: KINOMEscan competition binding; settings: compound 10.0 µM
PIM3 (human) = PIM3 (human) (UniProt Q86V86); assay: KINOMEscan competition binding; settings: compound 10.0 µM
STK17A (human) = STK17A (human) (UniProt Q9UEE5); assay: KINOMEscan competition binding; settings: compound 10.0 µM
STK17A (human), sequence (Q9UEE5 whole entry, looked up): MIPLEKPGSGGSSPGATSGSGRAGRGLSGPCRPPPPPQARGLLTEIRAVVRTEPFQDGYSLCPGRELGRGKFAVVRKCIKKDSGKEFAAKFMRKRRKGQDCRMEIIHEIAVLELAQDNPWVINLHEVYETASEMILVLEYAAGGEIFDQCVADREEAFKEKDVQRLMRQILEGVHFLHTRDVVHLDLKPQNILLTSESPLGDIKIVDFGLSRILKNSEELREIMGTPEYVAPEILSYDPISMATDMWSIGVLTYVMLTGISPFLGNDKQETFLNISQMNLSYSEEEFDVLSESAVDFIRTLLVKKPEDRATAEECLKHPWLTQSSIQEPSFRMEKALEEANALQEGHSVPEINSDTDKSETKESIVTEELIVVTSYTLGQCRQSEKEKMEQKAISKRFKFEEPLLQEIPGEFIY

PIM1 (human), sequence (P11309 whole entry, looked up): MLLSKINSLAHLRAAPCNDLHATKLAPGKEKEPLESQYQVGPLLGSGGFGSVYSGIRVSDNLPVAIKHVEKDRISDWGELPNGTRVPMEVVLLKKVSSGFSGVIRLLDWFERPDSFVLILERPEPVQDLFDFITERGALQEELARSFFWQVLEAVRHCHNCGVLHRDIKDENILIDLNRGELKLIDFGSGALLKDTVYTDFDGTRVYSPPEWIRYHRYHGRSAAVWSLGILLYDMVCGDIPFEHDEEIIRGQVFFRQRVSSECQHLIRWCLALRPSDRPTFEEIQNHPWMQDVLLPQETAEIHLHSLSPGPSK
PLK4 (human), sequence (O00444 whole entry, looked up): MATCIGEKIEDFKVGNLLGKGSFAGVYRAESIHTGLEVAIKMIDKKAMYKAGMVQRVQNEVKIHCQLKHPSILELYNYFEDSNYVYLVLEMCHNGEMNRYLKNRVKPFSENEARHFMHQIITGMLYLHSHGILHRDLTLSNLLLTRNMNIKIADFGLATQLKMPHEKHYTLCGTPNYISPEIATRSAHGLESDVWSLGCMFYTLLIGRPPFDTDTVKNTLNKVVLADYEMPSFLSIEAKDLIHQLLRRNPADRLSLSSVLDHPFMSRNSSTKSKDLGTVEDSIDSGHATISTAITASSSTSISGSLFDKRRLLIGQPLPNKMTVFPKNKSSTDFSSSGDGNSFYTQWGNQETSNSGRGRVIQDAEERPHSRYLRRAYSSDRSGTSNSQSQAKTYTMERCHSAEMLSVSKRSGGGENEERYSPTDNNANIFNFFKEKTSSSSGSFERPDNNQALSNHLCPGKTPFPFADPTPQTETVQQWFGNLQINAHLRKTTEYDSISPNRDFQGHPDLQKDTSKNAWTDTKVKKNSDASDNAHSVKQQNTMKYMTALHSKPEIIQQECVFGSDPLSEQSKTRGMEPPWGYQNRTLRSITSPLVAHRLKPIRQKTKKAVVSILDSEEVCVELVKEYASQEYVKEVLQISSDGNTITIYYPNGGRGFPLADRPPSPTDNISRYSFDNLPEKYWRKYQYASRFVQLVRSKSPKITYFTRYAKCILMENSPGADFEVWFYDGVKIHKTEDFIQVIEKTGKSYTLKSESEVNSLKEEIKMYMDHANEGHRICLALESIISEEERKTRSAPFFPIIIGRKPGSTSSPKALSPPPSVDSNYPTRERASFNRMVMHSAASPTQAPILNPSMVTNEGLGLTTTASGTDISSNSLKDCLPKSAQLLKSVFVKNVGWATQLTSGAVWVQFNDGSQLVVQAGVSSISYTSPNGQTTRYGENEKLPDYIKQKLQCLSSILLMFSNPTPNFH
PIK3CG (human), sequence (P48736 whole entry, looked up): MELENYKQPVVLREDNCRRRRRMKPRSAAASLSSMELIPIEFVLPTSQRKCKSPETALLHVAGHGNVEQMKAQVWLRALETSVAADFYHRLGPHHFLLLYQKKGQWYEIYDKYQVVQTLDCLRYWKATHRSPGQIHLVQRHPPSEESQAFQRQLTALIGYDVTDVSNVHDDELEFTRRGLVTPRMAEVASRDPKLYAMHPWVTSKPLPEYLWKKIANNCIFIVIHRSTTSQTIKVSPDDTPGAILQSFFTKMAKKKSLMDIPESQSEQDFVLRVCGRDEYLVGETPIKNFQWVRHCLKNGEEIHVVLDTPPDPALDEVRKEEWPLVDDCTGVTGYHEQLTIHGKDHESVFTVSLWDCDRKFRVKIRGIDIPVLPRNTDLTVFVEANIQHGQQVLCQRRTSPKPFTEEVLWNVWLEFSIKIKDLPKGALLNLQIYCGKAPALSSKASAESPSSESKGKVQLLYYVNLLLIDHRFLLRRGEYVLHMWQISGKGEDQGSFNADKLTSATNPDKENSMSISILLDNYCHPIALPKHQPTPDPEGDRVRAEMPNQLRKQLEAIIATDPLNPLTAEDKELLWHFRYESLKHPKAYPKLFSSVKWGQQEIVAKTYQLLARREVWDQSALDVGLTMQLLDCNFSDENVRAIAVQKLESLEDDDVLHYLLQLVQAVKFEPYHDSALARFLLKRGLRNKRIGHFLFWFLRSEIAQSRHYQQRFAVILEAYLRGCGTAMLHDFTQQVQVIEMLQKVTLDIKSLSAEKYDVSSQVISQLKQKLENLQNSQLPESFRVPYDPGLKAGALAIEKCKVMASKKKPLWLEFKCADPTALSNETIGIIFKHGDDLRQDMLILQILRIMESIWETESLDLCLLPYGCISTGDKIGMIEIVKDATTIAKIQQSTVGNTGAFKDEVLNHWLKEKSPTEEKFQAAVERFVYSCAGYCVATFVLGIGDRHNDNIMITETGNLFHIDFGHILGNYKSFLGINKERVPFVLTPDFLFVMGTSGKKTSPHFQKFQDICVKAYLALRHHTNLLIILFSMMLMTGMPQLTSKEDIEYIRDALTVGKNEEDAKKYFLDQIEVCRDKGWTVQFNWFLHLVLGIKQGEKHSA
PIM2 (human), sequence (Q9P1W9 whole entry, looked up): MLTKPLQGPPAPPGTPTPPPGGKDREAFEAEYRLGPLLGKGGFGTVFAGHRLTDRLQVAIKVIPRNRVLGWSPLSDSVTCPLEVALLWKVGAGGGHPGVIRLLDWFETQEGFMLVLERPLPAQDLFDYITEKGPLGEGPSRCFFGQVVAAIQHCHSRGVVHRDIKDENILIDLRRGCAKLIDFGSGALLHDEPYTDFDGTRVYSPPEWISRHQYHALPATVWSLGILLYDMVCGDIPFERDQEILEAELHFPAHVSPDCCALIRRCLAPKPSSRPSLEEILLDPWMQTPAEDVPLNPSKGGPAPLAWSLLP
PRKD1 (human), sequence (Q15139 whole entry, looked up): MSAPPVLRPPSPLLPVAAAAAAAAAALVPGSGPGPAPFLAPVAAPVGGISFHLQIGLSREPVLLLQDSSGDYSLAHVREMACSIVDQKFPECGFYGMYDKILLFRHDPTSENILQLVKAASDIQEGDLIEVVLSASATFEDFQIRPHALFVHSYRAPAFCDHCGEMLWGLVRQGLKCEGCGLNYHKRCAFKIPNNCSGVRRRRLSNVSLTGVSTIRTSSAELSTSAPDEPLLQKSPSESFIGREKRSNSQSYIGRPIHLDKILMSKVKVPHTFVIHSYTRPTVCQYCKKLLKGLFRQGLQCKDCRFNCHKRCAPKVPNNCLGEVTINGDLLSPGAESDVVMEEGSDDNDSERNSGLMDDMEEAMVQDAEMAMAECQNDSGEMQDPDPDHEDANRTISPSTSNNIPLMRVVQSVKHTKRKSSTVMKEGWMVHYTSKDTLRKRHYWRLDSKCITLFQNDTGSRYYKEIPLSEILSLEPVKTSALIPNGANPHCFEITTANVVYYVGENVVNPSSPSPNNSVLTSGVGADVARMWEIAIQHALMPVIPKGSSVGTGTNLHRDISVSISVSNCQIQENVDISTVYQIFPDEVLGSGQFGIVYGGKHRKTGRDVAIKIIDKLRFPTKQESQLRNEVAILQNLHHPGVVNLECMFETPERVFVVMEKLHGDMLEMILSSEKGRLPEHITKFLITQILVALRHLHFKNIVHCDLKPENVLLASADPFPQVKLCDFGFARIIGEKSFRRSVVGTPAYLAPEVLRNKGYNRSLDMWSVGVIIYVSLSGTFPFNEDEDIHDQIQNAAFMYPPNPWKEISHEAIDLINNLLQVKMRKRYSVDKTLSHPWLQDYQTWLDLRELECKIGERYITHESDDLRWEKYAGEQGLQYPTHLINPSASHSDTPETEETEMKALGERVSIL
TNK2 (human), sequence (Q07912 whole entry, looked up): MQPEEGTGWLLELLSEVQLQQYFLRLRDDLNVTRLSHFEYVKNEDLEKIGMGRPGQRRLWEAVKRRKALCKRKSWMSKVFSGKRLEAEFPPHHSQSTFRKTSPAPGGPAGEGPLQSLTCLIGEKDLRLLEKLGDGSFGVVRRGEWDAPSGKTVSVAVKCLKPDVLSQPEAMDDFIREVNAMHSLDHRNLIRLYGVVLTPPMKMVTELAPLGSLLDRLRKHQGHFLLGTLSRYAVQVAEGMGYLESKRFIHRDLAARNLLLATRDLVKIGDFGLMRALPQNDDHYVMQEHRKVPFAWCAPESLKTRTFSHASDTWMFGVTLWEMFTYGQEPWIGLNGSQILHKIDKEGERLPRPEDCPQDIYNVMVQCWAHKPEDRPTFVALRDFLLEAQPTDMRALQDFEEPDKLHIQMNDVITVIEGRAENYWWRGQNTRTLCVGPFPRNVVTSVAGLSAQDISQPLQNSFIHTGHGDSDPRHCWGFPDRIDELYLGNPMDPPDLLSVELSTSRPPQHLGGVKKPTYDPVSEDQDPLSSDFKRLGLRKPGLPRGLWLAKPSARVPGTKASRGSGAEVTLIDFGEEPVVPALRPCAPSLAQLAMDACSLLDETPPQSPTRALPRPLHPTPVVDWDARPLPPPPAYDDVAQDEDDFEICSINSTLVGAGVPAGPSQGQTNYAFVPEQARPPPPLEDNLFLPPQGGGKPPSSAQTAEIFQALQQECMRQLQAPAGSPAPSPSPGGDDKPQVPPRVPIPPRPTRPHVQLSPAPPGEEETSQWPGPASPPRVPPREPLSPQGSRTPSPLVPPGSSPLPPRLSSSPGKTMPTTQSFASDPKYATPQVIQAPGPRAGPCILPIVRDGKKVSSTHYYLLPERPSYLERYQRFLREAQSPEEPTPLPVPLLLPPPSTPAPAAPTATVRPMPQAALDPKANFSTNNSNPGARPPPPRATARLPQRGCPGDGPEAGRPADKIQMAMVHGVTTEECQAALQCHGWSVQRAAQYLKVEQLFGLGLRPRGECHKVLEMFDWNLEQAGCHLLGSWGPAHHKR

kinase still bound, per cent of control (RPS6KA1 KD2 (human)): 22%
kinase still bound, per cent of control (ULK2 (human)): 8.4%
kinase still bound, per cent of control (FER (human)): 32%
kinase still bound, per cent of control (RPS6KA6 KD2 (human)): 14%
kinase still bound, per cent of control (ROS1 (human)): 5.8%
kinase still bound, per cent of control [1]: 23%
kinase still bound, per cent of control (MAPK7 (human)): 0%
kinase still bound, per cent of control (TNK1 (human)): 0.45%
kinase still bound, per cent of control (CSF1R (human)): 3.2%
kinase still bound, per cent of control (PTK2 (human)): 7.9%
kinase still bound, per cent of control (STK33 (human)): 19%
kinase still bound, per cent of control (PLK1 (human)): 5.5%
kinase still bound, per cent of control (FGFR4 (human)): 6%
kinase still bound, per cent of control (AURKA (human)): 26%
kinase still bound, per cent of control (PTK2B (human)): 29%
kinase still bound, per cent of control (PLK4 (human)): 5.9%
kinase still bound, per cent of control (CAMKK2 (human)): 15%
kinase still bound, per cent of control (TNK2 (human)): 1.6%
kinase still bound, per cent of control (PIK3CG (human)): 9.3%
kinase still bound, per cent of control (DCLK2 (human)): 0.4%
kinase still bound, per cent of control (GAK (human)): 8.5%
kinase still bound, per cent of control (TAOK1 (human)): 6.8%
kinase still bound, per cent of control (RPS6KA2 KD2 (human)): 27%
kinase still bound, per cent of control (PTK6 (human)): 21%
kinase still bound, per cent of control (DCLK1 (human)): 0.55%
kinase still bound, per cent of control (AURKC (human)): 15%
kinase still bound, per cent of control (ULK1 (human)): 22%
kinase still bound, per cent of control (TAOK3 (human)): 5.4%
kinase still bound, per cent of control (MKNK2 (human)): 0%
kinase still bound, per cent of control (CAMK2D (human)): 27%
kinase still bound, per cent of control (MYLK (human)): 22%
kinase still bound, per cent of control (ALK (human)): 24%
kinase still bound, per cent of control (FRK (human)): 11%
kinase still bound, per cent of control [2]: 7.4%
kinase still bound, per cent of control (TTK (human)): 13%
kinase still bound, per cent of control (NUAK1 (human)): 24%
kinase still bound, per cent of control (PRKD1 (human)): 26%
SMILES: COc1cc(N2CCC(O)CC2)ccc1Nc1ncc2c(n1)N(C)c1ccccc1C(=O)N2C

pIC50 (PIM1 (human) [3]): 6.06
pIC50 (PIM2 (human) [4]): 6.12
kinase still bound, per cent of control (CSNK2A1 (human)): 18%
kinase still bound, per cent of control (MAPK12 (human)): 27%
kinase still bound, per cent of control (CSNK2A2 (human)): 31%
kinase still bound, per cent of control (PLK4 (human)): 22%
kinase still bound, per cent of control (PIK3CG (human)): 28%
kinase still bound, per cent of control (TGFBR2 (human)): 14%
kinase still bound, per cent of control (HIPK1 (human)): 5.2%
kinase still bound, per cent of control (GSK3A (human)): 28%
kinase still bound, per cent of control [5]: 5.1%
kinase still bound, per cent of control (PIM1 (human) [6]): 3.4%
kinase still bound, per cent of control (CDK7 (human)): 29%
kinase still bound, per cent of control (CLK4 (human)): 17%
kinase still bound, per cent of control (ZAP70 (human)): 29%
kinase still bound, per cent of control (PIM2 (human) [7]): 0.95%
kinase still bound, per cent of control (DAPK2 (human)): 34%
kinase still bound, per cent of control (STK17B (human)): 1.6%
kinase still bound, per cent of control [8]: 29%
kinase still bound, per cent of control (PIM3 (human)): 5.6%
kinase still bound, per cent of control (STK17A (human)): 0.4%
SMILES: COc1cc(C(N)=O)ccc1-c1ccc(/C=C2\SC(=N)NC2=O)o1
